Experimental data from patent US11230575B2, “Insoluble fusion protein comprising antimicrobial peptide and method for producing antimicrobial peptide using same” (Konkuk University Industrial Cooperation Corp., priority 2016, dated 2022).

Tests used:
Assay in all cases: spot-on-lawn antimicrobial activity test
Assay type in all cases: cell-based
[1] = tested on: Escherichia coli ATCC 25922
Experimental: (§1) In order to evaluate the antimicrobial activity of the purified antimicrobial peptides PG1 and PMAP36 according to the embodiment of the present invention, a spot-on-lawn test was carried out using E. coli ATCC 25922, Pseudomonas aeruginosa ATCC 27853, and Staphylococcus aureus ATCC 29213.

[2] = tested on: Pseudomonas aeruginosa ATCC 27853
Experimental: as §1

[3] = tested on: Staphylococcus aureus ATCC 29213
Experimental: as §1

Substance | Antimicrobial activity assay for the recombinant AMP produced [1] [µg/mL] | Antimicrobial activity assay for the recombinant AMP produced [2] [µg/mL] | Antimicrobial activity assay for the recombinant AMP produced [3] [µg/mL]
pig myeloid antibacterial peptide36 (GRFRRLRKKTRKRLKKIGKVLKWIPPIVGSIPLGCG; listed as Sus scrofa) [PMAP36, recombinantly produced antimicrobial peptide having a helix structure] | 10 | 11 | 9
Protegrin 1 (RGGRLCYCRRRFCVCVGRG) [PG1, recombinantly produced antimicrobial peptide with anti-parallel beta-hairpin structure stabilized by two disulfide bonds, first discovered in pig leucocytes] | 7 | 15 | 10
